# In patent publication US20250388571A1, “AMP-ACTIVATED PROTEIN KINASE MODULATOR COMPOUNDS AND USES THEREOF” (Biolexis Therapeutics, Inc., priority 2024, published 2025):
# “Also recorded” adds a separate entry of the source.
# Tests used:
# [1] = system: human skeletal muscle cells (HSKM cells); assay: Glucose uptake assay, human skeletal muscle cells; assay type: cell-based; conditions: for dose dependence of glucose uptake (printed: activation of insulin / AMPK activation): 100 μM to 0.005 μM, 1 hour; for glucose uptake: starved, treated 1 hour
# Protocol: FIGS. 1-4 show results for cells treated with differing doses of representative compounds of Structure (I) (i.e., compound I-11 in FIG. 1 and compound I-7 in FIG. 2) as well reference compounds (i.e., PF-06409577 in FIG. 3 and MK-8722 in FIG. 4). […] Cells were starved for 3 hours in high glucose DMEM without FBS, then treated with indicated compounds in DMEM without FBS/glucose for 1 hour, and glucose uptake was detected using an uptake glucose kit (Promega). The bars show (from left to right) concentrations of 100 μM, 33 μM, 11 μM, 3.7 μM, 1.23 μM, 0.41 μM, 0.14 μM, 0.045 μM, 0.015 μM, 0.005 μM, 0 μM, and insulin.
# (§1) Human skeletal myoblasts were obtained (Thermofisher; BYU) and cultured in DMEM/F12 medium with 10% FBS. For differentiation, 2% horse serum low glucose DMEM medium was employed for 72 hours. Human cardiomyocytes cells (HCM cells; Promocell) were cultured in myocyte growth medium (Promocell). Human preadipocyte HWP-c cells (Promocell) were obtained from upper arm of diabetic II donor. Human preadipocyte HWP-c cells (Promocell) were obtained from abdomen of diabetic II donor. For differentiating human preadipocytes, cells were cultured in preadipocyte growth medium to total confluency stage. The growth medium was replaced with preadipocyte differentiation medium for 72 hours, then changed to PromoCell adipocyte nutrition medium to complete the differentiation process. THLE-2 cells were cultured in BEGM from Lonza/Clonetics Corporation, Walkersville, MD 21793 (BEGM Bullet Kit; CC3170). HepG2, L6 and C2Cl2 cells were cultured in EMEM medium.
# (§2) After differentiation myoblasts, preadipocyte cells were starved by removing the medium and adding 100 μL DMEM without serum. The medium was then replaced with 100 μL DMEM±1 μM insulin at indicated concentration of representative compounds without serum or glucose. The cells were then incubated for 1 hour at 37° C. in 5% CO2. The cells were then removed from the medium and 50 μL of 0.1 mM 2DG in PBS was added. Cells were incubated for 30 minutes at 25° C. 25 μL of Stop Buffer was added and samples were mixed. 25 μL of Neutralization Buffer was then added and mixed. 100 μL of 2DG6P Detection Reagent was then added and mixed. Samples were then incubated for 1 hour at 25° C. Luminescence was then recorded with 0.3-1 second integration on a luminometer.
# [2] = system: human cardiomyocyte cells (HCM); assay: Glucose uptake assay, human cardiomyocyte cells; assay type: cell-based; conditions: for glucose uptake: donor not stated; for AMPK activation activity (glucose uptake assay): 10 doses 100 μM to 0.005 μM
# Protocol: FIGS. 17-19 show results for glucose update assays in human cardiomyocyte cells (“HCM”-healthy donor) (Promocell, cat. no. C-12810) when treated with compound I-11 (FIG. 17), compound I-7 (FIG. 18), and PF-06409577 (FIG. 19). After recovered HCM cells for 4 days, cells were starved for 3 hours in high glucose DMEM without FBS, treated with the components noted above in DMEM without FBS/glucose for 1 hour, and glucose uptake was detected using a glucose uptake kit (Promega). […] The bars show (from left to right) concentrations of 100 μM, 33 μM, 11 μM, 3.7 μM, 1.23 μM, 0.41 μM, 0.14 μM, 0.045 μM, 0.015 μM, 0.005 μM, 0 μM, and insulin.
# FIGS. 20-22 show results for glucose update assays in human cardiomyocyte cells (“HCM”-diabetic donor) (Promocell, cat. no. C-12810) when treated with compound I-11 (FIG. 20), compound I-7 (FIG. 21), and PF-06409577 (FIG. 22). After recovered HCM cells for 4 days, cells were starved for 3 hours in high glucose DMEM without FBS, treated with the components noted above in DMEM without FBS/glucose for 1 hour, and glucose uptake was detected using a glucose uptake kit (Promega). […] The bars show (from left to right) concentrations of 100 μM, 33 μM, 11 μM, 3.7 μM, 1.23 μM, 0.41 μM, 0.14 μM, 0.045 μM, 0.015 μM, 0.005 μM, 0 μM, and insulin.
# as §1, §2
# [3] = system: AMPK signal pathway in human cardiac myocytes (HCM); assay: Western blot assay, human cardiomyocytes; assay type: cell-based
# [4] = biological target: AMPK (A2/B1/G3) (Homo sapiens, UniProt P54646+Q9UGI9+Q9Y478); assay: AMPK kinase binding activity in activation mode (AC50); assay type: biochemical
# Sequence of AMPK (A2/B1/G3) (P54646 whole entry): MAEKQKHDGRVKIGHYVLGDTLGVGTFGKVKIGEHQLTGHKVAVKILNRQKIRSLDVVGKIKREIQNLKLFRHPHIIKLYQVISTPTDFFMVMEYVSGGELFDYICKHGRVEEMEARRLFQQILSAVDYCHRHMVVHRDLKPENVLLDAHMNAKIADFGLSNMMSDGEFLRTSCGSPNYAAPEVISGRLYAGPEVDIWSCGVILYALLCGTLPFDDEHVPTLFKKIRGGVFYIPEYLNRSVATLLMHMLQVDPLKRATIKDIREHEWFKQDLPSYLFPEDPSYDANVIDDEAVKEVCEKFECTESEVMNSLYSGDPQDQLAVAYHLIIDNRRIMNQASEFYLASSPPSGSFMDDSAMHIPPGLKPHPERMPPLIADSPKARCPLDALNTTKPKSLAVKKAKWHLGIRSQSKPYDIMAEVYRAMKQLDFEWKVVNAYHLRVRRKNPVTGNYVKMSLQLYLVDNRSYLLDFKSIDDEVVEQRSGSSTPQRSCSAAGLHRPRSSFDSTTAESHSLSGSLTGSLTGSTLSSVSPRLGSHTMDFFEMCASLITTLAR
# Sequence of AMPK (A2/B1/G3) (Q9Y478 whole entry): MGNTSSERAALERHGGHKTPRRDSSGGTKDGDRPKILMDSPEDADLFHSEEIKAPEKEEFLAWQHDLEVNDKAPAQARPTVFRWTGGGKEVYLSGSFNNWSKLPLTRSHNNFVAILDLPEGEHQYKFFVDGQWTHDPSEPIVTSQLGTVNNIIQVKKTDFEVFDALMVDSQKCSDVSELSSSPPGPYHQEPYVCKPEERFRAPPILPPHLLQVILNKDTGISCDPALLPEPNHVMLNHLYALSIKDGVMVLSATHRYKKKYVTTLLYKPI
# Sequence of AMPK (A2/B1/G3) (Q9UGI9 whole entry): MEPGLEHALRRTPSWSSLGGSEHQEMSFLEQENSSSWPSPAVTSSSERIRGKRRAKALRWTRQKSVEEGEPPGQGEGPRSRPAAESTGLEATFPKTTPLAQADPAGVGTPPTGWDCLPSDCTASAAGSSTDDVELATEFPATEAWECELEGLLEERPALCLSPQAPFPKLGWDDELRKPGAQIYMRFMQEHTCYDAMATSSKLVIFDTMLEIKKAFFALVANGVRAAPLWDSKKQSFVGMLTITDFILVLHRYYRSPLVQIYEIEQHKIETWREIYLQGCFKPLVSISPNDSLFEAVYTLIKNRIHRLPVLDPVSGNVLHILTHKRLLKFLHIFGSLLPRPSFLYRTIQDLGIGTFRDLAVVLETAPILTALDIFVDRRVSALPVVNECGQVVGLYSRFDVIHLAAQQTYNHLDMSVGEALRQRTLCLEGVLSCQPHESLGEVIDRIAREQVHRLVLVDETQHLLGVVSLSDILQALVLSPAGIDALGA
# [5] = biological target: AMPK (A2/B1/G2) (Homo sapiens, UniProt P54646+Q9UGJ0+Q9Y478); assay: as above; assay type: biochemical
# Sequence of AMPK (A2/B1/G2) (P54646 whole entry): as the sequence (P54646 whole entry) above
# Sequence of AMPK (A2/B1/G2) (Q9Y478 whole entry): as the sequence (Q9Y478 whole entry) above
# Sequence of AMPK (A2/B1/G2) (Q9UGJ0 whole entry): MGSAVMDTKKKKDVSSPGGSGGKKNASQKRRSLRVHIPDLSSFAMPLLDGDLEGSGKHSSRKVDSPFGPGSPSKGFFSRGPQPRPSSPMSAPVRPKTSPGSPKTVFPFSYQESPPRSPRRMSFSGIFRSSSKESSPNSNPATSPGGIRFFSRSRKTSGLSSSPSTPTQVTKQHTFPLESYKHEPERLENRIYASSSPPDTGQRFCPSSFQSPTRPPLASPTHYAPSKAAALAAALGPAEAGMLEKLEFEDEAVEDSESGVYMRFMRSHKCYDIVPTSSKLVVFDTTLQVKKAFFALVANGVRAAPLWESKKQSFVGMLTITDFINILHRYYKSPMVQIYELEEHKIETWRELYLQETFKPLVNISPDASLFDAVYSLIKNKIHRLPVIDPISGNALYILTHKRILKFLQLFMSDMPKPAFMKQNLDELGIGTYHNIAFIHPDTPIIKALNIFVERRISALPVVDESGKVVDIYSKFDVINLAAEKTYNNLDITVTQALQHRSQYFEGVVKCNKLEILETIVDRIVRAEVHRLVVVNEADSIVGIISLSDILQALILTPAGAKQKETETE
# Source text: In Vitro AMPK Kinase Inhibition Experiments
# [6] = biological target: AMPK (A2/B1/G1) (Homo sapiens, UniProt P54619+P54646+Q9Y478); assay: as above; assay type: biochemical
# Sequence of AMPK (A2/B1/G1) (P54646 whole entry): as the sequence (P54646 whole entry) above
# Sequence of AMPK (A2/B1/G1) (Q9Y478 whole entry): as the sequence (Q9Y478 whole entry) above
# Sequence of AMPK (A2/B1/G1) (P54619 whole entry): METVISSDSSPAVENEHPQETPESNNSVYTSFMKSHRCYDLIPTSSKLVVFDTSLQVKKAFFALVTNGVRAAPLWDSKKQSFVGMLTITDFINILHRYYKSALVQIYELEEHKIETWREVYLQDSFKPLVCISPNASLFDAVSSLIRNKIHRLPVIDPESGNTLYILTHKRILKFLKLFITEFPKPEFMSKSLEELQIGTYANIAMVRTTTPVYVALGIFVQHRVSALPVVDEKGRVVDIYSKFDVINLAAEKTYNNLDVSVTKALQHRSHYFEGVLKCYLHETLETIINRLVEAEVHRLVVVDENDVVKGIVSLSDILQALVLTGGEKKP
# [7] = system: Human white preadipocyte (HWP) cells; assay: Glucose uptake assay, human white preadipocyte cells; assay type: cell-based; conditions: for glucose uptake: human adipocyte cells / HWP-c cells, donor site not stated
# Protocol: (§3) FIGS. 5-8 show results for glucose update assays in Human white preadipocyte (HWP) cells (Promocell, cat. No. C-12735) when treated with compound I-11 (FIG. 5), compound I-7 (FIG. 6), MK-8722 (FIG. 7), and PF-06409577 (FIG. 8). HWP cells (subcutaneous upper arm of obese patient) were starved for 3 hours in DMEM without FBS, treated with the components noted above in […] DMEM without FBS/glucose for 1 hour, and glucose uptake was detected using a glucose uptake kit (Promega). […] The bars show (from left to right) concentrations of 100 μM, 33 μM, 11 μM, 3.7 μM, 1.23 μM, 0.41 μM, 0.14 μM, 0.045 μM, 0.015 μM, 0.005 μM, 0 μM, and insulin.
# as §3, with “9-12” for “5-8”, “9),” for “5),”, “10),” for “6),”, “11),” for “7),”, “12).” for “8).”, “(abdomen cells)” for “(subcutaneous upper arm of obese patient)”
# as §1, §2
# [8] = system: human hepatocytes-THLE-2 cells; assay: Glucose uptake assay, THLE-2 cells; assay type: cell-based
# Protocol: FIGS. 13-16 show results for glucose update assays in THLE-2 cells (ATCC, cat. No. CRL-2706) when treated with compound I-11 (FIG. 13), compound I-7 (FIG. 14), MK-8722 (FIG. 15), and PF-06409577 (FIG. 16). The THLE-2 cells were starved for 3 hours in high glucose DMEM without FBS, treated with the components noted above in DMEM without FBS/glucose for 1 hour, and glucose uptake was detected using a glucose uptake kit (Promega). The bars show (from left to right) concentrations of 100 μM, 33 μM, 11 μM, 3.7 μM, 1.23 μM, 0.41 μM, 0.14 μM, 0.045 μM, 0.015 μM, 0.005 μM, 0 μM, and insulin.
# as §1, §2
# [9] = system: AMPK signal pathway in HSKM cells; assay: Western blot assay, HSKM cells; assay type: cell-based, human; conditions: some high dosage groups; cell type not given
Structure (SMILES),AC50 [4],AC50 [5],AC50 [6],dose dependence of glucose uptake (printed: activation of insulin / AMPK activation) [1],glucose uptake [2],p-ACC/p-AMPK and AMPKα2β2γ3 expression [3],glucose uptake [1],glucose uptake [7],glucose uptake [8],"p-AMPK, p-ACC, and p-Raptor expression [9]","dose dependence of glucose uptake (printed: activates insulin) ([7]; HWP cells, abdomen cells, 100 μM to 0.005 μM, 1 hour)",AMPK activation activity (glucose uptake assay) ([2]; diabetic donor),AMPK activation activity (glucose uptake assay) ([2]; healthy donor)
"O[C@@H]1CO[C@H]2[C@@H]1OC[C@H]2Oc1nc2nc(-c3ccc(-c4ccccc4)cc3)c(Cl)cc2[nH]1 [MK-8722, reference compound]",–,–,–,highly variable,could increase glucose uptake,may be able to increase,–,–,–,–,–,–,–
"O=c1[nH]c(-c2c[nH]c3cc(Cl)c(-c4ccc(C5(O)CCC5)cc4)cc23)no1 [Compound I-1, 3-(6-chloro-5-(4-(1-hydroxycyclobutyl)phenyl)-1H-indol-3-yl)-1,2,4-oxadiazol-5(4H)-one]",≤ 10 nM,≤ 10 nM,10 to 500 nM,–,did not induce glucose uptake in dose-dependent manner,–,induced glucose uptake; also recorded: increased glucose uptake,induced glucose uptake,induced glucose uptake,could induce,–,–,–
"COc1ccc(-c2c(F)cc3[nH]cc(-c4noc(=O)[nH]4)c3c2F)c(OC)n1 [Compound I-17, 3-(5-(2,6-dimethoxypyridin-3-yl)-4,6-difluoro-1H-indol-3-yl)-1,2,4-oxadiazol-5(4H)-one]",500 to 5000 nM,500 to 5000 nM,500 to 5000 nM,–,–,–,–,–,–,–,–,–,–
"O=c1[nH]c(-c2c[nH]c3cc(F)c(-c4ccc(C5(O)CCC5)cc4)cc23)no1 [Compound I-7, 3-(6-fluoro-5-(4-(1-hydroxycyclobutyl)phenyl)-1H-indol-3-yl)-1,2,4-oxadiazol-5(4H)-one]",–,–,–,dose dependence,did not induce glucose uptake in dose-dependent manner,–,induced glucose uptake; also recorded: increased glucose uptake,induced glucose uptake,induced glucose uptake,could induce,dose dependent manner,did not show AMPK activation activity,did not show AMPK activation activity
"O=c1[nH]c(-c2c[nH]c3ccc(-c4ccc(C5(O)CCC5)cc4)cc23)no1 [Compound I-10, 3-(5-(4-(1-hydroxycyclobutyl)phenyl)-1H-indol-3-yl)-1,2,4-oxadiazol-5(4H)-one]",10 to 500 nM,10 to 500 nM,10 to 500 nM,–,did not induce glucose uptake in dose-dependent manner,–,induced glucose uptake; also recorded: increased glucose uptake,induced glucose uptake,induced glucose uptake,could induce,–,–,–
"O=c1[nH]c(-c2c[nH]c3cc(F)c(-c4ccc(C5(O)COC5)cc4)c(F)c23)no1 [Compound I-13, 3-(4,6-difluoro-5-(4-(3-hydroxyoxetan-3-yl)phenyl)-1H-indol-3-yl)-1,2,4-oxadiazol-5(4H)-one]",≤ 10 nM,≤ 10 nM,10 to 500 nM,–,–,–,increased glucose uptake,–,–,–,–,–,–

# Second part, led by results:
AC50 [4],AC50 [5],AC50 [6],Structure (SMILES),dose dependence of glucose uptake (printed: activation of insulin / AMPK activation) [1],glucose uptake [2],p-ACC/p-AMPK and AMPKα2β2γ3 expression [3],glucose uptake [1],glucose uptake [7],glucose uptake [8],"p-AMPK, p-ACC, and p-Raptor expression [9]","dose dependence of glucose uptake (printed: activates insulin) ([7]; HWP cells, abdomen cells, 100 μM to 0.005 μM, 1 hour)",AMPK activation activity (glucose uptake assay) ([2]; diabetic donor),AMPK activation activity (glucose uptake assay) ([2]; healthy donor)
10 to 500 nM,≤ 10 nM,10 to 500 nM,"COc1ncccc1-c1cc2c(-c3noc(=O)[nH]3)c[nH]c2cc1F [Compound I-15, 3-(6-fluoro-5-(2-methoxypyridin-3-yl)-1H-indol-3-yl)-1,2,4-oxadiazol-5(4H)-one]",–,–,–,–,–,–,–,–,–,–
10 to 500 nM,10 to 500 nM,–,"O=c1[nH]c(-c2c[nH]c3cc(F)c(-c4ccc(C5(O)COC5)cc4)cc23)no1 [Compound I-12, 3-(6-fluoro-5-(4-(3-hydroxyoxetan-3-yl)phenyl)-1H-indol-3-yl)-1,2,4-oxadiazol-5(4H)-one]",–,–,–,–,–,–,–,–,–,–
500 to 5000 nM,500 to 5000 nM,5000 to 7500 nM,"COc1ccc(-c2cc3c(-c4noc(=O)[nH]4)c[nH]c3cc2F)cn1 [Compound I-16, 3-(6-fluoro-5-(6-methoxypyridin-3-yl)-1H-indol-3-yl)-1,2,4-oxadiazol-5(4H)-one]",–,–,–,–,–,–,–,–,–,–
